According to BindingDB's records for doi:10.1021/jm050738x (University of Tokyo, 2006):

Experiment: Antagonist activity assessed by differentiation of 1,25-D3-induced HL60 cells

Compound | IC50 [µM]
C=C1/C(=C\C=C2/CCC[C@]3(C)[C@@H]([C@H](C)C[C@H]4C[C@@](C)(O)C(=O)N4CCc4ccccc4)CC[C@@H]23)C[C@@H](O)C[C@@H]1O [(3R,5S)-5-((R)-2-((1R,3aS,7aR,E)-4-((Z)-2-((3S,5R)-3,5-dihydroxy-2-methylenecyclohexylidene)ethylidene)-7a-methyloctahydro-1H-inden-1-yl)propyl)-3-hydroxy-3-methyl-1-phenethylpyrrolidin-2-one] | > 2
C=C1/C(=C\C=C2/CCC[C@@]3(C)C2CC[C@@H]3[C@H](C)C[C@H]2C[C@](C)(O)C(=O)N2Cc2ccc(OC)cc2)C[C@@H](O)C[C@@H]1O (some centres not stated) | 0.66
C=C1/C(=C\C=C2/CCC[C@@]3(C)C2CC[C@@H]3[C@H](C)C[C@H]2C[C@](C)(O)C(=O)N2C(C)C)C[C@@H](O)C[C@@H]1O (some centres not stated) | > 1
C=C1/C(=C\C=C2/CCC[C@]3(C)[C@@H]([C@H](C)C[C@H]4C[C@](C)(O)C(=O)N4Cc4ccccc4)CC[C@@H]23)C[C@@H](O)C[C@@H]1O [(3S,5S)-1-benzyl-5-((R)-2-((1R,3aS,7aR)-4-(2-((3S,5R)-3,5-dihydroxy-2-methylenecyclohexylidene)ethylidene)-7a-methyl-octahydro-1H-inden-1-yl)propyl)-3-hydroxy-3-methylpyrrolidin-2-one] | 0.7

Results, then the compound that gave them:

IC50 [µM] | Compound
0.39 | C=C1/C(=C\C=C2/CCC[C@]3(C)[C@@H]([C@H](C)C[C@H]4C[C@](C)(O)C(=O)N4CCCCc4ccccc4)CC[C@@H]23)C[C@@H](O)C[C@@H]1O [(3S,5S)-5-((R)-2-((1R,3aS,7aR)-4-(2-((3S,5R)-3,5-dihydroxy-2-methylenecyclohexylidene)ethylidene)-7a-methyl-octahydro-1H-inden-1-yl)propyl)-3-hydroxy-3-methyl-1-(4-phenylbutyl)pyrrolidin-2-one]
0.207 | C=C1/C(=C\C=C2/CCC[C@]3(C)[C@@H]([C@H](C)C[C@H]4C[C@](C)(O)C(=O)N4CCc4ccccc4)CC[C@@H]23)C[C@@H](O)C[C@@H]1O [(3S,5S)-5-((R)-2-((1R,3aS,7aR)-4-(2-((3S,5R)-3,5-dihydroxy-2-methylenecyclohexylidene)ethylidene)-7a-methyl-octahydro-1H-inden-1-yl)propyl)-3-hydroxy-3-methyl-1-phenethylpyrrolidin-2-one]
2.2 | C=C1/C(=C\C=C2/CCC[C@]3(C)[C@@H]([C@H](C)C[C@H]4C[C@](C)(O)C(=O)N4CCCc4ccccc4)CC[C@@H]23)C[C@@H](O)C[C@@H]1O [(3S,5S)-5-((R)-2-((1R,3aS,7aR)-4-(2-((3S,5R)-3,5-dihydroxy-2-methylenecyclohexylidene)ethylidene)-7a-methyl-octahydro-1H-inden-1-yl)propyl)-3-hydroxy-3-methyl-1-(3-phenylpropyl)pyrrolidin-2-one]
